Each structure is given as a SMILES string. Where only a bound is given, the exact number is not on record here.

In one data set the target is T1, Xanthine dehydrogenase/oxidase (Bos taurus, UniProt P80457). Nature of the data set: Inhibition of bovine xanthine oxidase using xanthine as substrate by measuring uric acid formation measured 30 secs interval for 5 mins by spectrophotometry analysis.
T1 sequence (P80457 whole entry): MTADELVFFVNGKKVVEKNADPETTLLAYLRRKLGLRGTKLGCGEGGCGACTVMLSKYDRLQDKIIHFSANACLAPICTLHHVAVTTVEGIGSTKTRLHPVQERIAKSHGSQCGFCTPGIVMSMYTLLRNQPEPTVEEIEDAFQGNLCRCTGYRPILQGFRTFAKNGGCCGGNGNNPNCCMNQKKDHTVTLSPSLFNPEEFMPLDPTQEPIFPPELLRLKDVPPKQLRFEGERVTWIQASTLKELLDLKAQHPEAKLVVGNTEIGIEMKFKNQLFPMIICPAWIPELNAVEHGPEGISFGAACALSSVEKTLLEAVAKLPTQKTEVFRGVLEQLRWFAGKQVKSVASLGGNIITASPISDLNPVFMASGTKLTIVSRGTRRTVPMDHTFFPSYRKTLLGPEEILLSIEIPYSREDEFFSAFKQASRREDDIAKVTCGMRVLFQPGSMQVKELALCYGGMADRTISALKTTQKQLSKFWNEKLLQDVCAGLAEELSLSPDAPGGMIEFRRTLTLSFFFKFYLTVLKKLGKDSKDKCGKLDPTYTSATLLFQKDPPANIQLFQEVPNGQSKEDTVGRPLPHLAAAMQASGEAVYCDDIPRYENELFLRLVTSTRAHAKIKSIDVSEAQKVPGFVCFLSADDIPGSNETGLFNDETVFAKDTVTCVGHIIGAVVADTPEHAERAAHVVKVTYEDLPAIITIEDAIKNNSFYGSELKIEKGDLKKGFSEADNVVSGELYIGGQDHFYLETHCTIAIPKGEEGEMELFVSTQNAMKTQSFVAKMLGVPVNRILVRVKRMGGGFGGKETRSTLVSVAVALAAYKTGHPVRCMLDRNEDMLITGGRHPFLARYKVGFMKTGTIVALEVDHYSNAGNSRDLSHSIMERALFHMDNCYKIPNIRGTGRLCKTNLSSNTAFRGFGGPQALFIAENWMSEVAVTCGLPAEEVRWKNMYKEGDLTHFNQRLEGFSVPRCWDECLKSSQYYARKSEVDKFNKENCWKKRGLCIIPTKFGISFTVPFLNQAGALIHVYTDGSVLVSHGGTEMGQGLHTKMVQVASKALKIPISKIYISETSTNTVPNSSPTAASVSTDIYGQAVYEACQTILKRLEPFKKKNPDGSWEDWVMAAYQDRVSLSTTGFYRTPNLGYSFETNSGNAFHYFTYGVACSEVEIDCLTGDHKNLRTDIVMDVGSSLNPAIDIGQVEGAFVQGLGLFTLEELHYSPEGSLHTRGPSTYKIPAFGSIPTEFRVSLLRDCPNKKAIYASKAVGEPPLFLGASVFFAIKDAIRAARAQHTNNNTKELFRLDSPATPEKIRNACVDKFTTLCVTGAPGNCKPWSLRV
Details: not given; call rule not given here
Consider `CC(C)=Cn1cc(C#N)c2cc(-c3cc(C(=O)O)no3)ccc21`, for which the IC50 (as a rule, the concentration needed to halve the response being measured) stood at 190 nM. For the compound `N#Cc1cn(Cc2ccccc2Cl)c2ccc(-c3cc(C(=O)O)no3)cc12`, the 50% inhibitory concentration (IC50) was determined as 200 nM.

Take `N#Cc1c[nH]c2ccc(-c3cc(C(=O)O)no3)cc12`: half-maximal inhibition (IC50) required 3100 nM. In the case of `CC(C)CCn1cc(C#N)c2cc(-c3cc(C(=O)O)no3)ccc21`, inhibition was half-maximal at 380 nM (IC50).

Regarding `CCn1cc(C#N)c2cc(-c3cc(C(=O)O)no3)ccc21`, half-maximal inhibition (IC50) was put at 560 nM. The compound `Cc1ccccc1Cn1cc(C#N)c2cc(-c3cc(C(=O)O)no3)ccc21` returned a half-maximal inhibitory concentration (IC50) of 260 nM. Turning to `CC(C)n1cc(C#N)c2cc(-c3cc(C(=O)O)no3)ccc21`, the midpoint of inhibition, the IC50, lay at 130 nM. The same measure, in the same setting: the same measure for `CC(C)Cn1cc(C#N)c2cc(-c3cc(C(=O)O)no3)ccc21`: 240 nM; for `CC#Cn1cc(C#N)c2cc(-c3cc(C(=O)O)no3)ccc21`: 570 nM; for `C=CCn1cc(C#N)c2cc(-c3cc(C(=O)O)no3)ccc21`: 390 nM. `N#Cc1cn(Cc2ccc(F)cc2)c2ccc(-c3cc(C(=O)O)no3)cc12` returned an IC50 of 600 nM. `N#Cc1cn(Cc2ccc(Cl)cc2)c2ccc(-c3cc(C(=O)O)no3)cc12` had an IC50 of 1260 nM.

`CCCCCn1cc(C#N)c2cc(-c3cc(C(=O)O)no3)ccc21` returned an IC50 of 600 nM. On the same count and under the same terms, the same measure for `CCCn1cc(C#N)c2cc(-c3cc(C(=O)O)no3)ccc21`: 320 nM; for `CCCCn1cc(C#N)c2cc(-c3cc(C(=O)O)no3)ccc21`: 540 nM; for `N#Cc1cn(Cc2ccccc2F)c2ccc(-c3cc(C(=O)O)no3)cc12`: 310 nM.

On to `N#Cc1cn(CC2CCCC2)c2ccc(-c3cc(C(=O)O)no3)cc12`, for which the half-maximal inhibitory concentration (IC50) came out at 270 nM.

Turning to `N#Cc1cn(Cc2ccc(Br)cc2)c2ccc(-c3cc(C(=O)O)no3)cc12`, the half-inhibitory concentration (IC50) was 1170 nM.

`N#Cc1cn(Cc2cccc(F)c2)c2ccc(-c3cc(C(=O)O)no3)cc12`: inhibition was half-maximal at 1290 nM (IC50).

The compound `N#Cc1cn(Cc2cccc(Cl)c2)c2ccc(-c3cc(C(=O)O)no3)cc12` showed a concentration for half-maximal inhibition (IC50) of 1840 nM. Still for that read-out and setting: the same measure for `N#Cc1cn(Cc2ccccc2)c2ccc(-c3cc(C(=O)O)no3)cc12`: 1030 nM; for `N#Cc1cn(C2CCC2)c2ccc(-c3cc(C(=O)O)no3)cc12`: 250 nM; for `N#Cc1cn(C2CCCC2)c2ccc(-c3cc(C(=O)O)no3)cc12`: 140 nM.

Another data set concerns the target T1, Xanthine dehydrogenase/oxidase. Kind of data set: Inhibition of bovine xanthine oxidase using xanthine as substrate at 10.0 uM measured 30 secs interval for 5 mins by spectrophotometry relative to control. Particulars: cattle.
Take `CC(C)=Cn1ccc2cc(-c3cc(C(=O)O)no3)ccc21`: the inhibition (as a rule, the drop in the measured response relative to a control, in per cent) at 10 µM is below 50%. Consider `CCOC(=O)c1cc(-c2ccc3c(c2)c(C#N)cn3C(C)C)on1`, for which the inhibition at 10 µM is below 50%.

Another data set shares this target. Nature of the data set: Mixed type inhibition of bovine xanthine oxidase assessed as increase in Km with decrease in Vmax using xanthine as substrate at upto 0.30 uM by Lineweaver-Burk plot analysis. Particulars: cattle, 0.3 µM.
With `CC(C)n1cc(C#N)c2cc(-c3cc(C(=O)O)no3)ccc21`, the “inhibition (INH)” value is recorded as “Active”.

For another data set the target is unchanged. Kind of data set: Binding affinity to bovine xanthine oxidase assessed as inhibition constant.
Details: not given
In the case of `CC(C)n1cc(C#N)c2cc(-c3cc(C(=O)O)no3)ccc21`, the inhibition constant (Ki) (in general, the equilibrium dissociation constant of an inhibitor or competing ligand from its target) was found to be 40 nM.

Biological target in the next data set: not listed separately
Kind of data set: Binding affinity to bovine xanthine oxidase/xanthine substrate complex assessed as inhibition constant. The arrangement: species or system Bos taurus.
Details: not given
For the compound `CC(C)n1cc(C#N)c2cc(-c3cc(C(=O)O)no3)ccc21`, the Ki was 360 nM.

For a further data set, the target named is T1, Xanthine dehydrogenase/oxidase. Nature of the data set: Potency index, ratio of Allopurinol IC50 to test compound IC50 for inhibition of bovine xanthine oxidase using xanthine as substrate by measuring uric acid formation measured 30 secs interval for 5 mins by spectrophotometry analysis. The conditions noted are these: cattle.
As for `CC(C)n1cc(C#N)c2cc(-c3cc(C(=O)O)no3)ccc21`, the “Ratio IC50” value amounted to 22.
